Consider 6 compounds from US20250268904A1 (priority 2020, published 2025).

The test system of data set [1] is U2OS osteosarcoma cells. As to the kind of experiment: Reduction of cellular ATP levels (viability). It is filed as cell-based. The following applies: Homo sapiens, 96 h, within 4 days, read-out: Inhibit Viability IC50 (cellular ATP levels). How it is done: (§1) The WX8-family of PIKfyve specific inhibitors disrupts multiple events in lysosome homeostasis (Table 1): • prevent lysosome fission without preventing homotypic lysosome fusion, thereby causing cytoplasmic vacuolization (enlarged lysosomes). Cytoplasmic vacuolization is evident within 30 minutes and reversible for up to 24-48 hours (1Vacuoles). • inhibit trafficking of molecules into lysosomes, thereby reducing lysosomal activity • inhibit maturation of lysosome cathepsins, thereby reducing lysosomal activity • disrupt endosome trafficking, thereby reducing cellular uptake of extracellular materials • inhibit cell proliferation (^3Proliferation) • disrupt autophagy by preventing heterotypic fusion of lysosomes with autophagosomes (^2LC3-II), thereby inducing cell death in autophagy-dependent cancer cells (^4Viability) under conditions where non-malignant cells remain viable.

Data set [2] relates to U2OS osteosarcoma cells. Description: LC3-II (autophagosome) accumulation. It counts as cell-based. The following applies: Homo sapiens, within 4 to 8 hours, read-out: Accumulate LC3-II EC50. How it is done: as §1
For data set [3], the system named is U2OS osteosarcoma cells. Description: Suppression of cell proliferation. It is filed as cell-based. The following applies: Homo sapiens, 72 h, within 3 days, read-out: Inhibit Proliferation IC50. How it is done:
as §1

The subject of data set [4] is U2OS osteosarcoma cells. Description: Induction of vacuoles (enlarged lysosomes). It is filed as cell-based. The following applies: within 4 hours. How it is done: as §1
Data set [5] concerns Vero E6 cells. It counts as cell-based, African Green monkey.
The test system of data set [6] is SARS-CoV-2.
A further data set in a line: in vitro. To be noted: African green monkey.
Data set [7] concerns SARS-CoV-2. As to the kind of experiment: microbe, parasite or virus in culture. To be noted: Severe acute respiratory syndrome coronavirus 2, Vero C1008, read-out: IC50 inhibition of SARS-CoV-2 infection.
The next data set deals with PIKfyve (Homo sapiens, UniProt Q9Y2I7). As to the kind of experiment: biochemical.
Data set [8] concerns Vero E6 cells. As to the kind of experiment: Vero E6 cell death, annexin-V / propidium iodide FACS. To be noted: Chlorocebus sabaeus, Vero C1008, 72 h; 3 days, annexin-V and propidium iodide staining; read-out: IC50 Vero E6 cell death (fraction of live cells). It is filed as cell-based, African Green monkey. How it is done:
(§2) FIG. 4. […] Vero E6 cells were plated at low density and then cultured overnight before adding WX8 at the concentrations indicated and then cultured for 3 days. (A) Attached cells were collected by trypsinization and counted. The fraction of cells (%) as well as the change in the total number of cells (fold change) relative to cells cultured in the presence of the WX8 vehicle control are given. (B) Attached and unattached cells were combined and stained with annexin-V to identify cells undergoing apoptosis and propidium iodide (PI) to identify dead cells that were permeable to a nuclear DNA stain. The cells were then analyzed by fluorescence activated cell sorting. Quadrant (Q) Q3 contained the unstained (live) cells. Q1 contained cells stained only with annexin-V (early apoptosis). Q2 contained cells stained with both annexin-V and PI (apoptotic dead cells). Q4 contained cells stained only with PI (necrotic dead cells). (C) Data were normalized to the fraction of live cells. Error bars indicate ±SEM. (D) Cells were first permeabilized, stained with PI and then analyzed by fluorescence activated cell sorting in order to quantify the fraction of cells with <2N DNA content. (E) The fraction of cells with <2N DNA content ±SEM.
(§3) WX8 inhibited Vero E6 cell proliferation with an IC50 of 0.4 μM (FIG. 4A). However, 100-fold higher concentrations of WX8 were required to induce cell death. […]

In data set [9] the test system is Vero E6 cells. As to the kind of experiment: Vero E6 cell proliferation (attached cell count). It counts as cell-based, African Green monkey. To be noted: Chlorocebus sabaeus, Vero C1008, 72 h; cultured for 3 days. How it is done: as §2, §3
Data set [10] deals with Vero E6 cells. As to the kind of experiment: Vero E6 loss of cellular DNA (PI FACS). It counts as cell-based, African Green monkey. The following applies: Chlorocebus sabaeus, Vero C1008, 72 h, read-out: IP50 for loss of cellular DNA. How it is done:
as §2, §3

Data set [11] has as its system 'autophagy-addicted' human melanoma cells. It counts as cell-based.
Another data set deals with T1, PIP4K2C (Homo sapiens, UniProt Q8TBX8).
T1 sequence (Q8TBX8 1-421): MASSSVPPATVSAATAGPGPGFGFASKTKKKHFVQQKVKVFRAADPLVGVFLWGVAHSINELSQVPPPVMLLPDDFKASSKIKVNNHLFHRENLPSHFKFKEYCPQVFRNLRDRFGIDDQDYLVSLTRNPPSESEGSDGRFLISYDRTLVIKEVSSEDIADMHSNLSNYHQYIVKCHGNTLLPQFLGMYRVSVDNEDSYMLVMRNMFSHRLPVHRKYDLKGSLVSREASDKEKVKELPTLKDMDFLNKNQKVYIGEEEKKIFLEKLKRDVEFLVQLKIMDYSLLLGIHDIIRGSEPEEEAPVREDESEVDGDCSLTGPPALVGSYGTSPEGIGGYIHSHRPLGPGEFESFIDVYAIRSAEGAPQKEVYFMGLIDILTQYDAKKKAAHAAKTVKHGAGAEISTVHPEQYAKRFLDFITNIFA
To be noted: ratio of Kd values.

A value given as a limit tells only on which side of the number the result lay.

PIKfyve, sequence (Q9Y2I7 whole entry): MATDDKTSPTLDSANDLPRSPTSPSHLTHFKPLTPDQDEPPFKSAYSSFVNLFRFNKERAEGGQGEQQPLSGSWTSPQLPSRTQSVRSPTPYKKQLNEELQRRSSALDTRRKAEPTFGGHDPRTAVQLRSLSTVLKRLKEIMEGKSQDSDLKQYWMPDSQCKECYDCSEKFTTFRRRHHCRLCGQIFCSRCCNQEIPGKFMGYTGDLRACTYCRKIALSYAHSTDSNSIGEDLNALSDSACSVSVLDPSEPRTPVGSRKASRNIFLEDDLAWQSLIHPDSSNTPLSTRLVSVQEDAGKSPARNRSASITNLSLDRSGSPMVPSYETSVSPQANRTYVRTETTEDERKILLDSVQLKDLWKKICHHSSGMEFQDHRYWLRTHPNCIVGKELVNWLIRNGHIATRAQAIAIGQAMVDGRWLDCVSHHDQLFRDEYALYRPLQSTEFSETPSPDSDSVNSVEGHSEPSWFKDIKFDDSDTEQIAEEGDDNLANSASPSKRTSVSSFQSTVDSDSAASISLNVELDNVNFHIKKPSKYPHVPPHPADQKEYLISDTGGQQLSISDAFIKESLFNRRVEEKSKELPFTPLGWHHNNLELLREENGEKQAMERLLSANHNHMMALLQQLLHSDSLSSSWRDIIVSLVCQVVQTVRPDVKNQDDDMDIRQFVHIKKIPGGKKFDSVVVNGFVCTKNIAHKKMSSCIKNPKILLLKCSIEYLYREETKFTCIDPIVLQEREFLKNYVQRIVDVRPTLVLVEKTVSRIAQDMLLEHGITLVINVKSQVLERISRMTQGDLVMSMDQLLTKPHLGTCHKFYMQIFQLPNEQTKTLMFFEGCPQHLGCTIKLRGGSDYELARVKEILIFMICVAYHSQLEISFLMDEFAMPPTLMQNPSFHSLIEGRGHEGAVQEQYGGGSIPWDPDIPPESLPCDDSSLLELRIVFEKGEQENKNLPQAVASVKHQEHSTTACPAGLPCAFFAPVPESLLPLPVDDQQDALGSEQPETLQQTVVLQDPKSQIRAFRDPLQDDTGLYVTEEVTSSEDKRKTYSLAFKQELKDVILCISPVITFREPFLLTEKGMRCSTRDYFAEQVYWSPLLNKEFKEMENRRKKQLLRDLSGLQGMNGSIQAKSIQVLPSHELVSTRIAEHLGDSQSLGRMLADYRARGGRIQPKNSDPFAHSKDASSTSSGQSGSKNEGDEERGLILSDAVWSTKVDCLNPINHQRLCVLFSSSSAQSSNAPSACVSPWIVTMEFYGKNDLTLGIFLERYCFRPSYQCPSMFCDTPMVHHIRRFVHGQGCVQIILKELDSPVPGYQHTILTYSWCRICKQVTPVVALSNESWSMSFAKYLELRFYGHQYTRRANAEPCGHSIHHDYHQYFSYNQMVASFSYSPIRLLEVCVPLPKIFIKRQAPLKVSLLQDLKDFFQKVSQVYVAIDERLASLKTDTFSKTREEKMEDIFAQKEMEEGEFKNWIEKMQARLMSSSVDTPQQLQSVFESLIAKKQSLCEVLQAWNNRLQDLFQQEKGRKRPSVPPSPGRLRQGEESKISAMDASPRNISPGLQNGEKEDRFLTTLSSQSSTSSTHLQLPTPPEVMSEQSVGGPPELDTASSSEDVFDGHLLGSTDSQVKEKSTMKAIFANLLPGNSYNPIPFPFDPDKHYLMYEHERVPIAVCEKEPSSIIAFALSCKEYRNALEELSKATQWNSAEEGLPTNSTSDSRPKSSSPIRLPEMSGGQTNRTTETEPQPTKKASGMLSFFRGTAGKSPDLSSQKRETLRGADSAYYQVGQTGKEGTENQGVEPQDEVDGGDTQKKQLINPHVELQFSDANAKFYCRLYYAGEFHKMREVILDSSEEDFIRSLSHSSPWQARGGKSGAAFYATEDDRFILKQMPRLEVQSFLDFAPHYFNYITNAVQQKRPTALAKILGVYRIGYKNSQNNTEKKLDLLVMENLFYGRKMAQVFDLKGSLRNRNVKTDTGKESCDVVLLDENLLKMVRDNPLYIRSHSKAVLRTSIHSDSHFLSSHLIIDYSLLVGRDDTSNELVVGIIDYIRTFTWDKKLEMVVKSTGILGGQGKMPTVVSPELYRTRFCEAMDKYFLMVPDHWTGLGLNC
Experimental for PIKfyve: (§4) Each kinase was tagged with a unique DNA sequence that allowed the amount of protein bound to the solid support to be quantified by PCR. The mean equilibrium dissociation constant (Kd) for each compound was then determined for the top three hits (PIKFYVE, PIP4K2C and MTOR) from two independent titration curves. A dissociation constant (Kd) was calculated by measuring the amount of kinase captured on the solid support as a function of the test compound concentration (nM) on a log10 scale. Mean Kd values (±range) are given for each WX8-family member. The ratios of PIP4K2C/PIKfyve and mTOR/PIKfyve indicate the relative specificity of each compound for PIKfyve.
Experimental for PIP4K2C: as §4

Take `CCc1ccc(Nc2nc(N3CCOCC3)nc(N3CCOCC3)n2)cc1` [XB6]: the IC50 in the data set on U2OS osteosarcoma cells [1] amounted to 5300 nM; in the data set with U2OS osteosarcoma cells [3] it was 7400 nM. Also, the concentration giving a half-maximal response (EC50) in the data set on U2OS osteosarcoma cells [2] is above 10000 nM. Moreover, in the data set with U2OS osteosarcoma cells [4], the “Accumulate Vacuoles EC” value was 2 µM.
On to `C(=N\Nc1cc(N2CCOCC2)nc(N2CCOCC2)n1)/c1ccccc1` [WWL], for which, in the data set on Vero E6 cells [5], the “accumulation of cytoplasmic vacuoles” value is reported as “rapidly accumulated cytoplasmic vacuoles”. Moreover, the IC50 with U2OS osteosarcoma cells [1] was found to be 2600 nM; in the data set on U2OS osteosarcoma cells [3], 1600 nM; in the data set with SARS-CoV-2 [7], 2440 nM. The CC50/IC50 with SARS-CoV-2 [6] is listed as 16. Also, the EC50 in the data set with U2OS osteosarcoma cells [2] is 6500 nM. This compound also came in with a CC50 in “in vitro” of 40300 nM. Besides, in the data set on U2OS osteosarcoma cells [4], the “Accumulate Vacuoles EC” value was found to be 0.2 µM.
For the compound `Fc1ccc(Nc2nc(N3CCOCC3)nc(N3CCOCC3)n2)cc1Cl` [XBA], the IC50 was above 10000 nM with U2OS osteosarcoma cells [1] and 4000 nM in the data set with U2OS osteosarcoma cells [3]. Moreover, the EC50 with U2OS osteosarcoma cells [2] is 7500 nM. Also, the “Accumulate Vacuoles EC” value in the data set with U2OS osteosarcoma cells [4] was 4 µM.
On to `Cc1cccc(/C=N/Nc2cc(N3CCOCC3)nc(OCCc3ccccn3)n2)c1` [Apilimod, reference compound], for which the “accumulation of cytoplasmic vacuoles” value with Vero E6 cells [5] is recorded as “rapidly accumulated cytoplasmic vacuoles”. Also, in the data set on SARS-CoV-2 [6], the CC50/IC50 is recorded as 22,027. The CC50 in the data set “in vitro” is 33000 nM. Besides, the IC50 in the data set with SARS-CoV-2 [7] was determined as 1.5 nM.
In the case of `C1=Nc2ccccc2/C1=C/NNc1nc(Nc2ccccc2)nc(N2CCOCC2)n1` [WX8], the dissociation constant Kd at PIKfyve is below 1 nM. In addition, the IC50 in the data set on Vero E6 cells [8] came out at 70000 nM; in the data set on U2OS osteosarcoma cells [1], 350 nM; with Vero E6 cells [9] it was 400 nM; in the data set with U2OS osteosarcoma cells [3], 200 nM; in the data set with Vero E6 cells [10], 60000 nM; in the data set with SARS-CoV-2 [7], 172 nM. For the same compound, the “accumulation of cytoplasmic vacuoles” value in the data set on Vero E6 cells [5] is “rapidly accumulated cytoplasmic vacuoles”. In the data set on SARS-CoV-2 [6], this compound came in with a CC50/IC50 of 245. Moreover, the EC50 in the data set with U2OS osteosarcoma cells [2] is 300 nM. This compound also showed a CC50 in the data set “in vitro” of 42300 nM. In [11], the “lethality relative to chloroquine” value was 100 times. Also, at PIP4K2C, the “affinity for PIKfyve relative to PIP4K2C (PIP4K2C/PIKfyve)” value was determined as 366 fold. Besides, in the data set with U2OS osteosarcoma cells [4], the “Accumulate Vacuoles EC” value was 0.01 µM.
On to `Cc1cccc(/C=N/Nc2cc(N3CCOCC3)nc(N3CCOCC3)n2)c1` [NDF], for which the “accumulation of cytoplasmic vacuoles” value in the data set with Vero E6 cells [5] is listed as “rapidly accumulated cytoplasmic vacuoles”. The figures for the IC50 with U2OS osteosarcoma cells [1], with U2OS osteosarcoma cells [3] and with SARS-CoV-2 [7] were 420 nM, 1100 nM and 499 nM, respectively. The compound also gave a CC50/IC50 in the data set on SARS-CoV-2 [6] of 52. Moreover, in the data set on U2OS osteosarcoma cells [2], the EC50 is 1500 nM. Also, the CC50 in the data set “in vitro” amounted to 26300 nM. The “Accumulate Vacuoles EC” value with U2OS osteosarcoma cells [4] was found to be 0.1 µM.
